“And” between values parts separate entries of the source, which are not always exact repeats. Equal values may be shown once. “Also recorded” adds a separate entry of the source.
Legend:
rat brain motor cortex = assay: Transcranial PA imaging of chemoconvulsant (PTZ) seizure neural activity; assay type: in vivo, Sprague Dawley rats; settings: for neural activity index (fractional change vs baseline): baseline 1.00±0.20
Description: (§1) 2.5.1 Photoacoustic imaging setup. For the recording of electrophysiological brain activities in vivo, an ultrasound research system was utilized that consisted of ultrasound array transducer (L 14-5/38) connected to a real-time data acquisition system (SonixDAQ, Ultrasonix Medical Corp., Canada). To induce the PA signals, pulsed laser light was generated by a second-harmonic (532 nm) Nd:YAG laser pumping an optical parametric oscillator (OPO) system (Phocus Inline, Opotek Inc., USA). The tunable range of the laser system was 690-900 nm and the maximum pulse repetition frequency was 20 Hz. The laser pulse was delivered into the probe through bifurcated fiber optic bundles, each 40 mm long and 0.88 mm wide. The PA probe was located at around the Interaural 11.2 mm and Bregma 2.2 mm to obtain the cross-section of motor cortexes (FIG. 15). The energy density at skin surface was only 3.5 mJ/cm^2, which is far below the ANSI safety limit restricting the 5-ns pulsed laser exposure at 700-1400 nm of wavelength range to be lower than 20 mJ/cm^2. 2.5.2 Lipid vesicle phantom preparation for VSD validation. The lipid vesicle model was prepared using the same procedure as in Zhang et al (Zhang, et al., 2017); 25-mg soybean phosphatidyl-choline (type II) suspended in 1 mL of K^+ buffer was used as the lipid vesicles. This vesicle contains 100 mM K2SO4 and 20 mM HEPES. The suspension was vortexed for 10 min, and followed by 60 min of sonication within bath-type sonicator to yield a translucent vesicle suspension. A Na^+ buffer was also prepared, which contains 100 mM Na2SO4 and 20 mM HEPES. Afterwards, approximately a 100:1 K^+ gradient across vesicle membrane was established with 10 μL of lipid vesicle suspension added to 1 mL of Na^+ buffer. In the vesicle phantom prepared, negative membrane potential (polarized state) was mimicked by adding 2.5 μL of 10 μM valinomycin—a K^+ specific ionophore, thereby K^+ ions were transported from inside to outside of vesicle membranes.
2.5.4 Animal preparation. For the proposed in vivo experiments. […]

[1] = in vivo; cited from earlier work
[2] = Photoacoustic characterization of PA-VSD in lipid vesicle phantom; assay type: physicochemical; settings: 800 nm; for fractional PA intensity change upon polarization: 20 samples
Method: (§2) Lipid vesicles were prepared from 25-mg soybean phosphatidylcholine (type II) suspended in 1 mL of K^+ buffer, which contains 100 mM K2SO4 and 20 mM HEPES. This suspension was vortexed for 10 min and sonicated in bath-type sonicator for 60 min, yielding a translucent vesicle suspension. A Na^+ buffer containing 100 mM Na2SO4 and 20 mM HEPES was prepared. During experiments, 10 μL of vesicle suspension was added to 1 mL of Na^+ buffer, resulting in an approximately 100:1 K^+ gradient across vesicle membrane. VSD was added to this suspension. When 2.5 μL of 10 μM valinomycin—a K^+ specific ionophore—was added, K^+ ions were transported from inside to outside of vesicle membranes, resulting in a negative membrane potential. This negative potential drives the positively charged VSDs into the vesicles, which causes aggregation of dyes and quenching of fluorescence. Subsequent addition of 2.5 μL of 1 mM gramicidin, a nonspecific monovalent cation ionophore, allows Na^+ cations to move from outside to inside of vesicle membranes to short circuit the membrane potential.
The PA sensing system was employed for the characterization of the synthesized PA-VSD (FIG. 3); Q-switched Nd:YAG laser integrated with an optical parametric oscillator (Phocus Inline and MagicPrism, Opotek Inc.) was used for PA signal generation. With the tunability of the laser system, the spectral responses for near-infrared wavelengths (i.e., 700 to 850 nm at 10-nm interval) were scanned with 20-Hz pulsed repetition frequency and […]. The light was delivered through an optical fiber bundle with a 9-mm round shaped output, which was aligned with an ultrasound receiver. The PAVSD in the lipid vesicles suspension was loaded into transparent tubes with 1.27-mm diameter (AAQ04133, Tygon®, SaintGobain Corp.), which were located at around 30 mm depth in the water tank. Note that the temperature of the water was consistently maintained at 22° C. during the experiments. A 10-MHz linear ultrasound probe (L 14-5/38, Ultrasonix Corp.) was used for PA-VSD sensing in a practical circumstance with a limited bandwidth (i.e., 75%-6 dB fractional bandwidth). Similarly, a hydrophone with wide flat bandwidth from 250 kHz to 20 MHz (HGL-1000, Onda Corp., California) was used to collect single line radio-frequency (RF) PA pressure signal. Twenty sets of PA data were collected, in which 19 of them were collected using the linear array transducer, and the other was through the hydrophone, and the average and standard deviation values were calculated. The PA signals acquired at the depth of target were used to form an averaged RF signal, which is further processed to present PA intensity at each optical wavelength; this permitted an accurate correlation with the spectrophotometric measurements. For the imaging setup, one set of data was obtained using the linear array transducer from 9 μM PA-VSD at 800-nm optical wavelength, and the difference between the resting and polarized states was analyzed.

[3] = Spectrophoto/fluorometric characterization of PA-VSD in lipid vesicle suspension (valinomycin/gramicidin); assay type: physicochemical; settings: for fluorescence quenching (fractional change in fluorescence) upon valinomycin polarization: 9 μM concentration, emission 825 nm
Method: as §2, with “This suspension was vortexed for 10 min and sonicated in bath-type sonicator for 60 min, yielding a translucent vesicle suspension.” left out
A combined spectrophoto/fluorometer system (Spectramax i3x, Molecular Devices) was used to measure both fluorescence and absorbance of the PA-VSD with 1, 3, 6, and 9 μM concentrations. For fluorescence, the measurement was conducted for the spectral range from 750 to 850 nm at 10-nm increment, and the absorbance was measured in the range from 600 to 900 nm at 5-nm increments. Note that 720-nm wavelength was used for excitation during spectrofluorometry of the PA-VSD.

rat motor cortex [4] = assay: VSD toxicity study, EEG during direct cortical application via cranial window; assay type: in vivo
Method: 2.5.10 Validation of protocol for using sub-dermal EEG electrodes to determine toxic CNS effects of VSDs. VSDs effect on EEG signal from sub-dermal scalp electrodes was investigated in a pilot by direct cortical applications of increasing concentrations of VSDs in anesthetized rat with limited craniotomies while recording synchronous vEEGs (FIG. 21).
Increasing concentrations of VSD were tested in the same rat at temporally spaced time-points. Rats were anesthetized with IP injection to ketamine/xylazine and a cranial window made over the right motor cortex. After recording a baseline EEG in the rat for 10-min duration with the craniotomy, the follow-on EEG recording continued to record EEG following application of increasing concentrations of vehicle alone and VSD+ vehicle for the same duration of EEG recordings (i.e., 10 min) allowing comparisons of EEG responses to each increasing gradient of VSD on cortical activity as compared to baseline EEG signature in the same rat.

[5] = test system: blood-brain barrier (BBB); assay: PA intensity monitoring of VSD penetration through BBB with regadenoson; assay type: in vivo, rat; settings: brain tissue region; intravenous; last 2 min (8-10 min), 480 time points
Method: (Carman, et al., 2011) For preliminary studies, the dosage and IV administration method indicated by the manufacturer was utilized. A volume of 150 μl of the standard concentration of 0.08 mg/1 ml was given to each animal regardless of the weight, followed by 150 μl flush of 0.9% sodium chloride for injection. VSD penetration was expected during the Lexiscan's biological half-life, i.e., 2-4 minutes, thereby the experimental protocol was designed based on the pharmacological assumption. In vivo experimental protocol. The in vivo protocols were respectively designed for three experimental groups: negative control, control, and seizure groups. […] Note that each data acquisition was performed for 10 min to cover the biological half-life of Lexiscan (2-3 min). Each dosing protocol of Lexiscan and VSD was as follows: through the jugular vein catheter port located in the neck, 150 μl of Lexiscan 0.4 mg/5 ml concentration was injected, and 300 μl of VSD was subsequently administrated at 0.1 mg/ml concentration, followed by 150 μl of saline solution flush. […] The negative control group was designed to validate the incapability of Lexiscan and PTZ to generate any bias on PA neural activity detection by excluding VSD administration. […]

[6] = Photoacoustic measurement and quantum yield estimation of near-infrared VSD in lipid vesicle phantom; assay type: physicochemical; settings: for PA intensity decrease in depolarization state compared to polarized state (pure VSD contrast): 790 nm
Description: as §1
Otherwise, 2.5 μL of 1 mM gramicidin, a nonspecific monovalent cation ionophore, enables Na+ cations to move from outside to inside of vesicle membranes to short circuit the membrane potential (depolarized state).
2.5.3 Estimation of quantum yield change of VSD. The quantum yields of the near-infrared VSD in depolarized states […] were estimated based on the Eq. 8 and 9 disclosed previously. […] The quantum yield in the polarized state (ΦF) were also estimated by compensating for the absorbance and fluorescence emission changes when depolarized: ΦF=(CF/Cabs)Φ′F.

[7] = Spectrophotometric measurements of near-infrared VSD in lipid vesicle phantom; assay type: physicochemical
Description: as §1, with “Afterwards, approximately a 100:1 K^+ gradient across vesicle membrane was established with 10 μL of lipid vesicle suspension added to 1 mL of Na^+ buffer. In the vesicle phantom prepared, negative membrane potential (polarized state) was mimicked by adding 2.5 μL of 10 μM valinomycin—a K^+ specific ionophore, thereby K^+ ions were transported from inside to outside of vesicle membranes.” left out
Otherwise, 2.5 μL of 1 mM gramicidin, a nonspecific monovalent cation ionophore, enables Na+ cations to move from outside to inside of vesicle membranes to short circuit the membrane potential (depolarized state). From these controls, our near-infrared VSD positively charged can move in and out through the vesicle membrane, leading to the change in fluorescence quenching depending on their aggregation status.

rat motor cortex [8] = assay: EEG validation of seizure activity in the in vivo protocol; settings: IV VSD treatment; anesthetized rats
Method: 2.5.9 EEG validation of neural seizure activity. To obtain the EEG records of electrical spike discharges that originated from motor cortex shown in FIG. 14, sub-dermal scalp EEG recording electrodes were located at the corresponding locations on motor cortex indicated by Xs in FIG. 21A, the schematic of the rat cranium (three electrodes, 1 recording and 1 reference over motor cortex, 1 ground electrode over rostrum). The EEG signal at motor cortex was recorded with the identical preparation procedures in PA imaging including animal preparation, administration of IR780, Lexiscan, and PTZ, time duration for recording, and interval between sequences in the protocol. Data acquisition was done using Sirenia software (Pinnacle Technologies Inc., Kansas, USA) with synchronous video capture. […] The files were stored in .EDF format and scored manually for protocol stages using real time annotations added to the recording during the experiments.

[9] = direct cortical application, 100×
[10] = estimated with theoretical model

SMILES: CNC(=O)c1cnn(-c2nc(N)c3ncn([C@@H]4O[C@H](CO)[C@@H](O)[C@H]4O)c3n2)c1 [Lexiscan, regadenoson]
- neural activity index (rat brain motor cortex; negative control group without VSD, Lexiscan+/PTZ−): 0.92±0.23
- biological half-life [1]: 2-4 min and 2-3 min

SMILES: CCN1/C(=C/C=C/C=C/C=C/C2=[N+](CC)c3ccc4ccccc4c3C2(C)C)C(C)(C)c2c1ccc1ccccc21.[I-] [PAVSD800-2]
- fractional PA intensity change upon polarization ([2]; 1 μM): 17%
- fractional PA intensity change upon polarization ([2]; 3 μM): 24%
- fractional PA intensity change upon polarization ([2]; 6 μM): 17%
- PA intensity increase in the polarized state ([2]; 6 μM, typical experiment): 14%
- fractional PA intensity change upon polarization ([2]; 9 μM): 17%
- fractional change of PA signals ([2]; 9 μM, dataset chosen for reconstructed PA images): 22.72%
- fluorescence quenching (fractional change in fluorescence) upon valinomycin polarization [3]: up to 49%
- fluorescence quenching (fractional change in fluorescence) upon valinomycin polarization ([3]; listed as PA-VSD): 49%
- fluorescence emission ([3]; in the presence of lipid membranes): 828 nm

SMILES: CCCN1/C(=C/C=C2\CCCC(/C=C/C3=[N+](CCC)c4ccccc4C3(C)C)=C2Cl)C(C)(C)c2ccccc21.[I-] [IR780, IR780 perchlorate]
- course of EEG suppression (rat motor cortex [4]; 100×, over the 10-min recording period): recovered to baseline
- EEG effect of 100× solution (rat motor cortex [4]; [9]): significant EEG background suppression
- rats with significant EEG background suppression (rat motor cortex [4]; [9]): 4/6
- effect on baseline EEG (rat motor cortex [4]; direct cortical application, lower concentrations, 10-min recordings): no effect in altering the baseline EEG; also recorded: remained unaltered
- fractional increase of PA intensity from the natural condition (VSD−, Lexiscan−) [5]: 1.09±0.09
- PA intensity decrease in depolarization state compared to polarized state (pure VSD contrast) [6]: 12.3±6.7%
- PA intensity decrease in depolarization state compared to polarized state (pure VSD contrast) ([6]; listed as VSD): 12.3% and 12.22%
- quantum yield in the depolarized state [6, 10]: 0.28±0.10
- quantum yield in the polarized state [6, 10]: 0.17±0.06
- peak absorbance [7]: 790 nm
- absorbance change between polarized and depolarized states ([7]; valinomycin and gramicidin): 3%
- fluorescence emission change between polarized and depolarized states ([7]; valinomycin and gramicidin): 40.1%
- neural activity index (fractional change vs baseline) (rat brain motor cortex; control group (VSD+Lexiscan, no PTZ)): 0.93±0.25
- neural activity index (fractional change vs baseline) (rat brain motor cortex; seizure group (VSD+Lexiscan+PTZ), motor cortex, 790 nm): 2.40±0.42
- PTZ evolution of status on EEG (rat motor cortex [8]): did not alter
